According to publication PMC6465334, “Functional Analysis of MsepOR13 in the Oriental Armyworm Mythimna separata (Walker)” (Frontiers in Physiology, 2019):

Key:
[1] = target: T1, MsepOR13/Orco (MsepOR13/MsepOrco) (Mythimna separata, UniProt A0A650FIP0); experiment: two-electrode voltage clamp, Xenopus oocytes, single concentration; assay type: cell-based; settings: MsepOrco co-expressed; holding potential -80 mV; 15 s exposure at 10^-4 M; agonist
T1 construct: gene OR13; full-length untagged MsepOR13, 408 aa (ORF 1227 bp), cloned from adult antennal cDNA; pT7Ts cRNA, Xenopus oocytes; with Odorant receptor coreceptor
T1 sequence (A0A650FIP0 1-408): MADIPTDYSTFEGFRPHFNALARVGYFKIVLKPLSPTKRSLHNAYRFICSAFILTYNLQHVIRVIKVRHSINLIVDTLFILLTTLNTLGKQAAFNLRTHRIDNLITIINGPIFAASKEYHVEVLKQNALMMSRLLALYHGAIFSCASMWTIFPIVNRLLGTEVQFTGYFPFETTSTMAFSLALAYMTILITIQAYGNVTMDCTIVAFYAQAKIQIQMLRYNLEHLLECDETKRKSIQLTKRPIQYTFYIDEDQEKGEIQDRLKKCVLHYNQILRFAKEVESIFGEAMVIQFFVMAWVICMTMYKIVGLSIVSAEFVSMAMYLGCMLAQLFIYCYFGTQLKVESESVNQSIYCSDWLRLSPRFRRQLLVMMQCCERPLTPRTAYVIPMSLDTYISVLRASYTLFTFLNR
T1 sequence (B5MEJ5 1-473 partner): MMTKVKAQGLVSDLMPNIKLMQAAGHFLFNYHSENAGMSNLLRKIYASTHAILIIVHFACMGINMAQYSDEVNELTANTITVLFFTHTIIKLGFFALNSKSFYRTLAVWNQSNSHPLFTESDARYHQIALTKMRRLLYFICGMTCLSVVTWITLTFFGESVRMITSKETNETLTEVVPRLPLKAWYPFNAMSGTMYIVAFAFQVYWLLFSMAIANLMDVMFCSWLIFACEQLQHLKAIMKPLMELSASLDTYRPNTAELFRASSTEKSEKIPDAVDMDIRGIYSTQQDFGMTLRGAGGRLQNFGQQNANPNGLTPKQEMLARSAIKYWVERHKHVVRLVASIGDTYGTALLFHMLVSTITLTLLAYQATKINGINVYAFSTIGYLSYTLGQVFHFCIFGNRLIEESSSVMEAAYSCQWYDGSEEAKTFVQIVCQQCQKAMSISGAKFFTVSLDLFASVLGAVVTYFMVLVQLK

[2] = target: T1, MsepOR13/Orco (MsepOR13/MsepOrco); experiment: two-electrode voltage clamp, Xenopus oocytes, dose-response; assay type: cell-based

Structure (SMILES)	current response at 10^-4 M [1]	EC50 [2] [µM]
CC(=O)c1ccccc1 [Acetophenone]	523.3 nA	
C=CCc1ccc(O)c(OC)c1 [Eugenol]		3.91
CCCCCCO [1-Hexanol]	60 nA	
C=CCc1ccc(OC)c(OC)c1 [Methyl eugenol]	~ 1655 nA	
